Source: ChEMBL document CHEMBL1201862, “PubChem BioAssay data set” (2004)
Each block holds one compound with its values, some of them ahead of it. Active and inactive are the calls of the source.

Tests used:
[1] = target: T1, Tyrosine-protein phosphatase non-receptor type 11 (Homo sapiens, UniProt Q06124); test: SHP2 phosphatase inhibition, dose response, selectivity assay for STEP inhibitor project, biochemical (AID 602367); format: functional; details: read-out: IC50_Mean
T1 sequence (Q06124 whole entry): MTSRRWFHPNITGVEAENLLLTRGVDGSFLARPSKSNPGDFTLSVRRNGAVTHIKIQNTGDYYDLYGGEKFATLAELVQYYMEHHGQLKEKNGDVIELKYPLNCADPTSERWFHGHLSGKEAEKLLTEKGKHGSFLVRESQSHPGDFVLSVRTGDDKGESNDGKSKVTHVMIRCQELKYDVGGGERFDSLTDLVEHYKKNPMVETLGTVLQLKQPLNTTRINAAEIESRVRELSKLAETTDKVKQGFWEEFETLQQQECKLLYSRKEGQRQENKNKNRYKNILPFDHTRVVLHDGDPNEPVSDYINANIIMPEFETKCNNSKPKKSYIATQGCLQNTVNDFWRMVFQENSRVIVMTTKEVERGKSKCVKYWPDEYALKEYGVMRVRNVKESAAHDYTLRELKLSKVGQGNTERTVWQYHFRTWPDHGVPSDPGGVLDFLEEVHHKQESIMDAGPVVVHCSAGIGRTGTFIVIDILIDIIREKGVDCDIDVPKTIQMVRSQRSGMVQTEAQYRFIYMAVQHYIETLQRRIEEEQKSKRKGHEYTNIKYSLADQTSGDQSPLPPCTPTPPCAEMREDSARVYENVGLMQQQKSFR

[2] = target: T2, Tyrosine-protein phosphatase non-receptor type 5 (Homo sapiens, UniProt P54829); test: STEP phosphatase inhibitors, confirmation, biochemical, fluorescence intensity, uHTS hits (AID 602372); format: functional; details: read-out: IC50_Mean
T2 sequence (P54829 whole entry): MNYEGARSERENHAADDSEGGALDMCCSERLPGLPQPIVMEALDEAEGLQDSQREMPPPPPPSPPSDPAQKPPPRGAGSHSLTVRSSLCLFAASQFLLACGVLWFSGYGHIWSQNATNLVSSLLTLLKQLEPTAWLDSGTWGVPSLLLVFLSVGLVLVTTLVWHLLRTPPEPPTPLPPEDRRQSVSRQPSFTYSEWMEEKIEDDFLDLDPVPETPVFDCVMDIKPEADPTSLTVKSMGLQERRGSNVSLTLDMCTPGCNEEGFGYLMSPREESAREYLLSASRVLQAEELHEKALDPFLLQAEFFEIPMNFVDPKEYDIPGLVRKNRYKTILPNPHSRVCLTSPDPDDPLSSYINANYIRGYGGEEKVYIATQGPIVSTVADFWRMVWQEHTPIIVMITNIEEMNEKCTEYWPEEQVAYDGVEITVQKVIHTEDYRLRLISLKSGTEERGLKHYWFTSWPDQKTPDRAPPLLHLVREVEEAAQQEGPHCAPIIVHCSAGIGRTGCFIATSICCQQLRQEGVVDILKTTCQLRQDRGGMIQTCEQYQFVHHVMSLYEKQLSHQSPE

[3] = target: Dual specificity protein phosphatase 3 (Homo sapiens, UniProt P51452); test: VHR phosphatase inhibition, dose response, selectivity assay for STEP inhibitor project, biochemical (AID 602374); format: functional; details: read-out: IC50_Mean
Dual specificity protein phosphatase 3, sequence (P51452 whole entry): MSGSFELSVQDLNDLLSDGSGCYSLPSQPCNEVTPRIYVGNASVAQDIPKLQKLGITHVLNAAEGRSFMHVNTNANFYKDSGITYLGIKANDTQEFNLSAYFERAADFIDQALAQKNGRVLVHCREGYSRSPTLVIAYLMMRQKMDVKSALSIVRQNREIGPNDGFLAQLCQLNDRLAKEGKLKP

[4] = intracellular Trypanosoma cruzi inhibitors in host cells – cell-based, plate reader, cherry-pick samples, set 3, dose response (AID 651818); format: functional;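 note: compounds incubated with infected cells for about four days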
Insulin-degrading enzyme [5] = target: T3, Insulin-degrading enzyme (Homo sapiens, UniProt P14735); test: activators of recombinant IDE enzyme, dose response, counter-screen for IDE activator project, biochemical, fluorescence polarization (AID 588681)
T3 sequence (P14735 whole entry): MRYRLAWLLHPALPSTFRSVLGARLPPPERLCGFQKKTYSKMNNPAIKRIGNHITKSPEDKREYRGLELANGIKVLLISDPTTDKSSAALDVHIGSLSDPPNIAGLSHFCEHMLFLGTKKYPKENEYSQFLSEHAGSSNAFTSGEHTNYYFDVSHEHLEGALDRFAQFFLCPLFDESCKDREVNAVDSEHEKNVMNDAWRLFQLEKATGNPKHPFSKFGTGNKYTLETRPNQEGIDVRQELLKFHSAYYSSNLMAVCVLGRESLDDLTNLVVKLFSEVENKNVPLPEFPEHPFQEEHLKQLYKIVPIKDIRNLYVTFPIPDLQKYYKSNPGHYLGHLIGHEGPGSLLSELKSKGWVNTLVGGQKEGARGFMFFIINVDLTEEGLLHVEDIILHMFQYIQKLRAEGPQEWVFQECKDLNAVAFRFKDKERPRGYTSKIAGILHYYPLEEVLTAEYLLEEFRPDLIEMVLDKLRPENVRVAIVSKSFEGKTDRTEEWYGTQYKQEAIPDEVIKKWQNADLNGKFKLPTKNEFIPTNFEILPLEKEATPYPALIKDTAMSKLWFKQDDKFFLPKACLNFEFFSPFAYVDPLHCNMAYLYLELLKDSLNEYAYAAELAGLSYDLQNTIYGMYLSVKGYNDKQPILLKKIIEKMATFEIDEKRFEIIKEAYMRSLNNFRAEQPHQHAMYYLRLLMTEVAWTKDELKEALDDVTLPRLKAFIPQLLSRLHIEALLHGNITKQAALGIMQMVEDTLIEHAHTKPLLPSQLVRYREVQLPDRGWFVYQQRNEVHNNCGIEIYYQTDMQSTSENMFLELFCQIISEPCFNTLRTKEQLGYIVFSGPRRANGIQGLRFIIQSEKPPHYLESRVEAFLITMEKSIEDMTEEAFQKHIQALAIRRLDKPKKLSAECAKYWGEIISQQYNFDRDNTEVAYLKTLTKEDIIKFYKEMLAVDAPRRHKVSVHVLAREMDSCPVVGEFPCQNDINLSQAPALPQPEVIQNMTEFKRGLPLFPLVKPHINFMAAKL

Insulin-degrading enzyme [6] = target: T3, Insulin-degrading enzyme; test: activators of endogenous IDE in HEK cells, dose response, cell-based, fluorescence polarization (AID 588439); format: functional
HEK293 [7] = test: HEK cell cytotoxicity by LDH release, dose response, cytotoxicity control for IDE activator project, fluorescence, HEK cells (AID 588440); format: functional, cell-based; details: Homo sapiens;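 note: cytotoxicity by LDH release measuring loss of membrane integrity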
HEK293 [8] = test: optical interference in Abeta FP readout, dose response, artefact control for IDE activator project, biochemical, fluorescence polarization (AID 588442); format: functional, cell-based; details: Homo sapiens

IC50 [1]: 3.1 µM (active)
IC50 [2]: 16.5 µM (active)
IC50 [3]: 0.997 µM (active)
Structure (SMILES): Cc1ccc(C(=S)N2CCN(Cc3ccccc3)CC2)s1

Structure (SMILES): C[C@H]1CN([C@@H](C)CO)C(=O)Cc2cc(NC(=O)Nc3cccc4ccccc34)ccc2O[C@@H]1CN(C)CC1CCCCC1
AC50 [4]: 4.35 µM (active)

Structure (SMILES): C[C@@H]1CN([C@H](C)CO)C(=O)c2cccc(NC(=O)c3nc4ccccc4s3)c2O[C@H]1CN(C)S(=O)(=O)c1ccc(Cl)cc1
AC50 [4]: 0.964 µM (active)

Structure (SMILES): CC(=O)Nc1ccc(S(=O)(=O)NCCc2ccccn2)cc1
EC50 (Insulin-degrading enzyme [5]): > 54.7 µM (inactive)
EC50 (Insulin-degrading enzyme [6]): > 54.7 µM (inactive)
IC50 (HEK293 [7]): > 89.2 µM (inactive)
EC50 (HEK293 [8]): > 56 µM (inactive)
